Reference: US10314308B2, “Microbiocidal benzoxaboroles” (SYNGENTA PARTICIPATIONS AG, priority 2015, dated 2019)

How the values were obtained:
Gaeumannomyces Graminis = test: Gaeumannomyces graminis / liquid culture (take-all of cereals); format: cell-based; conditions: PDB potato dextrose broth, 24° C., 4-5 days after application, read-out: disease control (inhibition of growth, photometrically)
Protocol: (§1) 13 Gaeumannomyces Graminis/Liquid Culture (Take-all of Cereals) Mycelial fragments of the fungus from cryogenic storage were directly mixed into nutrient broth (PDB potato dextrose broth). After placing a DMSO solution of test compound into a 96-well microtiter plate, the nutrient broth containing the fungal spores is added. The test plates were incubated at 24° C. and the inhibition of growth was determined photometrically 4-5 days after application.

[1] = tested on: Monographella Nivalis(Microdochium Nivale); test: Monographella nivalis (Microdochium nivale) / liquid culture (foot rot cereals); format: cell-based; conditions: PDB potato dextrose broth, 24° C., 4-5 days after application, read-out: disease control (inhibition of growth, photometrically)
Protocol: as §1, with “14 Monographella Nivalis(Microdochium Nivale)/Liquid” for “13 Gaeumannomyces Graminis/Liquid”, “(Foot Rot” for “(Take-all of”, “Conidia” for “Mycelial fragments”, “was” for “is”

Pythium Ultimum = test: Pythium ultimum / liquid culture (seedling damping off); format: cell-based; conditions: Globisporangium ultimum, potato dextrose broth, 24° C., 2-3 days after application, read-out: disease control (inhibition of growth, photometrically)
[2] = tested on: Mycosphaerella Graminicola(Septoria Tritici); test: Mycosphaerella graminicola (Septoria tritici) / liquid culture (Septoria blotch); format: cell-based; conditions: Zymoseptoria tritici, PDB potato dextrose broth, 24° C., 4-5 days after application, read-out: disease control (inhibition of growth, photometrically)
Protocol: as §1, with “12 Mycosphaerella Graminicola(Septoria Tritici)/Liquid” for “13 Gaeumannomyces Graminis/Liquid”, “(Septoria Blotch) Conidia” for “(Take-all of Cereals) Mycelial fragments”, “was” for “is”

[3] = tested on: Mycosphaerella Arachidis(Cercospora Arachidicola); test: Mycosphaerella arachidis (Cercospora arachidicola) / liquid culture (early leaf spot); format: cell-based; conditions: PDB potato dextrose broth, 24° C., 4-5 days after application, read-out: disease control (inhibition of growth, photometrically)
Protocol: as §1, with “11 Mycosphaerella Arachidis(Cercospora Arachidicola)/Liquid” for “13 Gaeumannomyces Graminis/Liquid”, “(Early Leaf Spot) Conidia” for “(Take-all of Cereals) Mycelial fragments”, “was” for “is”

[4] = tested on: Glomerella Lagenarium(Colletotrichum Ladenarium); test: Glomerella lagenarium (Colletotrichum lagenarium) / liquid culture (anthracnose); format: cell-based; conditions: PDB potato dextrose broth, 24° C., 3-4 days after application, read-out: disease control (inhibition of growth, photometrically)
Protocol: as §1, with “10 Glomerella Lagenarium(Colletotrichum Ladenarium)/Liquid” for “13 Gaeumannomyces Graminis/Liquid”, “(Anthracnose) Conidia” for “(Take-all of Cereals) Mycelial fragments”, “was” for “is”, “measured” for “determined”, “3-4” for “4-5”

Plasmopara Viticola = test: whole plant or invertebrate; format: in vivo; conditions: foliar, read-out: disease control
Sclerotinia Sclerotiorum = test: Sclerotinia sclerotiorum / liquid culture (cottony rot); format: cell-based; conditions: PDB potato dextrose broth, 24° C., 3-4 days after application, read-out: disease control (inhibition of growth, visually)
Protocol: 17 Sclerotinia Sclerotiorum/Liquid Culture (Cottony Rot) Mycelia fragments of a newly grown liquid culture of the fungus were directly mixed into nutrient broth (PDB potato dextrose broth). After placing a (DMSO) solution of the test compounds into a microtiter plate (96-well format) the nutrient broth containing the fungal material was added. The test plates were incubated at 24° C. and the inhibition of growth was determined visually 3-4 days after application.

[5] = tested on: Botryotinia Fuckeliana(Botrytis Cinerea); test: Botryotinia fuckeliana (Botrytis cinerea) / liquid culture (gray mould); format: cell-based; conditions: Vogels broth, 24° C., 3-4 days after application, read-out: disease control (inhibition of growth, photometrically)
Protocol: as §1, with “9 Botryotinia Fuckeliana(Botrytis Cinerea)/Liquid” for “13 Gaeumannomyces Graminis/Liquid”, “(Gray Mould) Conidia” for “(Take-all of Cereals) Mycelial fragments”, “(Vogels” for “(PDB potato dextrose”, “was” for “is”, “3-4” for “4-5”

Fusarium Culmorum = test: microbe, parasite or virus in culture; format: cell-based; conditions: read-out: disease control (inhibition of growth, photometrically)

CON=Cc1ccc(-c2cc3c(cc2Cl)COB3O)o1 (racemic) [Compound 23, 1-[5-(5-chloro-1-hydroxy-3H-2,1-benzoxaborol-6-yl)-2-furyl]-N-methoxy-methanimine]
≥ 80%: inhibition at 20 ppm (Gaeumannomyces Graminis) | inhibition at 20 ppm [1] | inhibition at 20 ppm (Pythium Ultimum) | inhibition at 20 ppm [2] | inhibition at 20 ppm [3] | inhibition at 20 ppm [4]

OB1OCc2cc(Cl)c(-c3ccncc3)cc21 [Compound 7]
≥ 80%: pest or weed control at 200 ppm (Plasmopara Viticola) | inhibition at 20 ppm (Pythium Ultimum)

Cn1nccc1-c1cc2c(cc1Cl)COB2O [Compound 9]
≥ 80%: pest or weed control at 200 ppm (Plasmopara Viticola) | inhibition at 20 ppm (Pythium Ultimum)

Cn1nccc1-c1cc2c(cc1F)COB2O [Compound 10]
≥ 80%: inhibition at 20 ppm (Sclerotinia Sclerotiorum) | inhibition at 20 ppm [5] | inhibition at 20 ppm (Pythium Ultimum) | inhibition at 20 ppm [2] | inhibition at 20 ppm [3] | inhibition at 20 ppm [4] | inhibition at 20 ppm (Fusarium Culmorum)

OB1OCc2cc(Cl)c(-c3cnco3)cc21 [Compound 18]
≥ 80%: inhibition at 20 ppm (Gaeumannomyces Graminis) | inhibition at 20 ppm (Sclerotinia Sclerotiorum) | inhibition at 20 ppm [1] | inhibition at 20 ppm (Pythium Ultimum) | inhibition at 20 ppm [2] | inhibition at 20 ppm [3] | inhibition at 20 ppm [4] | inhibition at 20 ppm (Fusarium Culmorum)

OB1OCc2cc(Cl)c(-c3cncnc3O)cc21 [Compound 19]
≥ 80%: inhibition at 20 ppm (Pythium Ultimum)

CSc1ncc(-c2cc3c(cc2Cl)COB3O)c(C)n1 [Compound 20]
≥ 80%: inhibition at 20 ppm [1] | inhibition at 20 ppm (Pythium Ultimum) | inhibition at 20 ppm (Fusarium Culmorum)

Cc1nc(Nc2ccccc2)nc(C2CC2)c1-c1cc2c(cc1Cl)COB2O [Compound 24]
≥ 80%: inhibition at 20 ppm [1]

O=Cc1ccc(-c2cc3c(cc2F)COB3O)o1 [Compound 26]
≥ 80%: inhibition at 20 ppm (Sclerotinia Sclerotiorum) | inhibition at 20 ppm [1] | inhibition at 20 ppm [5] | inhibition at 20 ppm (Pythium Ultimum) | inhibition at 20 ppm [2] | inhibition at 20 ppm [3] | inhibition at 20 ppm [4] | inhibition at 20 ppm (Fusarium Culmorum)

O=Cc1csc(-c2cc3c(cc2Cl)COB3O)c1 [Compound 34]
≥ 80%: inhibition at 20 ppm (Gaeumannomyces Graminis) | inhibition at 20 ppm [1] | inhibition at 20 ppm (Pythium Ultimum) | inhibition at 20 ppm [2] | inhibition at 20 ppm [3] | inhibition at 20 ppm [4] | inhibition at 20 ppm (Fusarium Culmorum)

OB1OCc2cc(Cl)c(-c3cc4ccccc4o3)cc21 [Compound 37]
≥ 80%: pest or weed control at 200 ppm (Plasmopara Viticola) | inhibition at 20 ppm (Gaeumannomyces Graminis) | inhibition at 20 ppm [1] | inhibition at 20 ppm [4]

N#Cc1ccc(-c2cc3c(cc2Cl)COB3O)o1 [Compound 41]
≥ 80%: pest or weed control at 200 ppm (Plasmopara Viticola) | inhibition at 20 ppm (Gaeumannomyces Graminis) | inhibition at 20 ppm [1] | inhibition at 20 ppm (Pythium Ultimum) | inhibition at 20 ppm [2] | inhibition at 20 ppm [4]

N#Cc1csc(-c2cc3c(cc2Cl)COB3O)c1 [Compound 43]
≥ 80%: pest or weed control at 200 ppm (Plasmopara Viticola) | inhibition at 20 ppm (Gaeumannomyces Graminis) | inhibition at 20 ppm [1] | inhibition at 20 ppm (Pythium Ultimum) | inhibition at 20 ppm [4]

OB1OCc2cc(Cl)c(-c3cc(Br)cs3)cc21 [Compound 46]
≥ 80%: inhibition at 20 ppm (Gaeumannomyces Graminis) | inhibition at 20 ppm [1] | inhibition at 20 ppm (Pythium Ultimum) | inhibition at 20 ppm [2] | inhibition at 20 ppm [4]

OB1OCc2cc(Cl)c(-c3cc4ccccc4s3)cc21 [Compound 47]
≥ 80%: pest or weed control at 200 ppm (Plasmopara Viticola) | inhibition at 20 ppm (Gaeumannomyces Graminis) | inhibition at 20 ppm [1] | inhibition at 20 ppm (Pythium Ultimum) | inhibition at 20 ppm [2] | inhibition at 20 ppm [3]

Cn1nc(-c2cc3c(cc2F)COB3O)c2ccccc21 [Compound 48]
≥ 80%: pest or weed control at 200 ppm (Plasmopara Viticola) | inhibition at 20 ppm (Gaeumannomyces Graminis) | inhibition at 20 ppm [1] | inhibition at 20 ppm (Pythium Ultimum)

Cc1cscc1-c1cc2c(cc1Cl)COB2O [Compound 53]
≥ 80%: inhibition at 20 ppm (Gaeumannomyces Graminis) | inhibition at 20 ppm [1] | inhibition at 20 ppm (Pythium Ultimum) | inhibition at 20 ppm [3] | inhibition at 20 ppm [4]

Cc1nn(C)c(C)c1-c1cc2c(cc1F)COB2O [Compound 55]
≥ 80%: pest or weed control at 200 ppm (Plasmopara Viticola) | inhibition at 20 ppm (Pythium Ultimum)

COc1ncc(-c2cc3c(cc2F)COB3O)c(OC)n1 [Compound 58]
≥ 80%: inhibition at 20 ppm [1] | inhibition at 20 ppm (Pythium Ultimum)

OB1OCc2cc(F)c(-c3ccc(N4CCOCC4)nc3)cc21 [Compound 59]
≥ 80%: inhibition at 20 ppm (Pythium Ultimum)

CCn1cc(-c2cc3c(cc2F)COB3O)cn1 [Compound 60]
≥ 80%: pest or weed control at 200 ppm (Plasmopara Viticola) | inhibition at 20 ppm (Gaeumannomyces Graminis) | inhibition at 20 ppm [1] | inhibition at 20 ppm (Pythium Ultimum) | inhibition at 20 ppm [3] | inhibition at 20 ppm [4]

OB1OCc2cc(F)c(-c3cc4ccccc4[nH]3)cc21 [Compound 61]
≥ 80%: pest or weed control at 200 ppm (Plasmopara Viticola) | inhibition at 20 ppm (Gaeumannomyces Graminis) | inhibition at 20 ppm (Sclerotinia Sclerotiorum) | inhibition at 20 ppm [1] | inhibition at 20 ppm (Pythium Ultimum) | inhibition at 20 ppm [2] | inhibition at 20 ppm [3]

CCOc1ccc(-c2cc3c(cc2F)COB3O)cn1 [Compound 64]
≥ 80%: pest or weed control at 200 ppm (Plasmopara Viticola) | inhibition at 20 ppm [1] | inhibition at 20 ppm (Pythium Ultimum)

COc1ncc(-c2cc3c(cc2Cl)COB3O)c(OC)n1 [Compound 69]
≥ 80%: inhibition at 20 ppm (Pythium Ultimum)

OB1OCc2cc(Cl)c(-c3ccc(N4CCOCC4)nc3)cc21 [Compound 70]
≥ 80%: inhibition at 20 ppm [1] | inhibition at 20 ppm (Pythium Ultimum) | inhibition at 20 ppm [2] | inhibition at 20 ppm [3]

CCn1cc(-c2cc3c(cc2Cl)COB3O)cn1 [Compound 71]
≥ 80%: pest or weed control at 200 ppm (Plasmopara Viticola) | inhibition at 20 ppm [1] | inhibition at 20 ppm (Pythium Ultimum) | inhibition at 20 ppm [3]

COc1ccc(-c2cc3c(cc2F)COB3O)cn1 [Compound 76]
≥ 80%: inhibition at 20 ppm [1] | inhibition at 20 ppm (Pythium Ultimum)

Cn1cc(-c2cc3c(cc2F)COB3O)cn1 [Compound 77]
≥ 80%: inhibition at 20 ppm (Gaeumannomyces Graminis) | inhibition at 20 ppm (Pythium Ultimum) | inhibition at 20 ppm [3]

OB1OCc2cc(F)c(-c3cnccc3C(F)(F)F)cc21 [Compound 78]
≥ 80%: pest or weed control at 200 ppm (Plasmopara Viticola) | inhibition at 20 ppm (Pythium Ultimum)

Cc1cc(-c2cc3c(cc2F)COB3O)c(C)s1 [Compound 80]
≥ 80%: inhibition at 20 ppm [1] | inhibition at 20 ppm (Pythium Ultimum) | inhibition at 20 ppm [3] | inhibition at 20 ppm [4]

OB1OCc2cc(F)c(-c3cncc(C(F)(F)F)c3)cc21 [Compound 82]
≥ 80%: inhibition at 20 ppm (Gaeumannomyces Graminis) | inhibition at 20 ppm (Sclerotinia Sclerotiorum) | inhibition at 20 ppm [1] | inhibition at 20 ppm (Pythium Ultimum) | inhibition at 20 ppm [2] | inhibition at 20 ppm [3] | inhibition at 20 ppm [4]

COc1ccc(-c2cc3c(cc2Cl)COB3O)cn1 [Compound 85]
≥ 80%: inhibition at 20 ppm [1] | inhibition at 20 ppm (Pythium Ultimum)

Cn1cc(-c2cc3c(cc2Cl)COB3O)cn1 [Compound 86]
≥ 80%: inhibition at 20 ppm (Gaeumannomyces Graminis) | inhibition at 20 ppm [1] | inhibition at 20 ppm (Pythium Ultimum) | inhibition at 20 ppm [3]

OB1OCc2cc(Cl)c(-c3cnccc3C(F)(F)F)cc21 [Compound 87]
≥ 80%: pest or weed control at 200 ppm (Plasmopara Viticola) | inhibition at 20 ppm [1] | inhibition at 20 ppm (Pythium Ultimum)

OB1OCc2cc(Cl)c(-c3ccncc3Cl)cc21 [Compound 89]
≥ 80%: pest or weed control at 200 ppm (Plasmopara Viticola) | inhibition at 20 ppm [1] | inhibition at 20 ppm (Pythium Ultimum) | inhibition at 20 ppm [2] | inhibition at 20 ppm [3] | inhibition at 20 ppm [4]
